# Patent US20050119301A1, “Treatment of restenosis” (priority 2001, published 2005)
# “Also recorded” adds a separate entry of the source.
# System: rat isolated aortic rings
# Assay: Protection against endothelium damage induced by oxidised LDL, acetylcholine dilatation (Protocol 3)
# Protocol: Male Sprague-Dawley rats (250±50 g) were gassed with 80% CO2 and 20% O2 until killed. The thoracic aorta was excised and quickly placed in ice-cold Krebs modified solution composed of NaCl […], […] 4.7 mM, MgSO4 7H2O 1.17 mM, NaHCO3 25 mM, KH2PO4 1.18 mM, CaCl2 2.5 mM, glucose 11 mM and EDTA 0.03 mM. It was then trimmed of fat and connective tissue and cut into 2-3 mm wide rings. Each ring was mounted on two parallel stainless steel hooks in a single water-jacketed 3 ml organ bath containing modified Krebs solution maintained at 37° C. and bubbled with 95% O2 plus 5% CO2. The lower hook was attached to a movable support leg and the upper hook to an FTO3 force transducer (Grass Scientific Instruments, Mitutoyo, Japan) for isometric recordings. Changes in force were amplified (Quadbridge amplifier, Scientific Concepts Inc., Victoria, Australia) and recorded on a MacLab 8E data acquisition system (Adinstruments Pty Ltd., NSW, Australia) linked to an Apple computer (Apple Computer Inc, Cupertina, Calif.). Rings were set at an initial tension of 2 g and allowed to equilibrate for 30 minutes after which time they were re-set to 2 g tension before the commencement of each experimental protocol.
# Full concentration response curves to phenylephrine were constructed from which the concentration giving a submaximal contraction of approximately 80% was selected (usually 0.3 μM). Tissues were then constricted with phenylephrine at the selected concentration and allowed to plateau. Full concentration dilatory curves were then constructed to acetylcholine. […]
# Human plasma was obtained from the blood bank. […] The protein content of the final LDL fraction obtained was determined by the simplified protein assay method of Lowry. […]
# Contractile responses are expressed in g tension (mean+standard error of the mean). Dilatory responses are expressed as a percentage of the contractile force generated by the pre-constricting agent used. […]
smiles,measurement,setting,value
Oc1ccc(C2COc3cc(O)ccc3C2O)cc1 (centres unmarked) [Cpd. 8],potency of protective effect against ox-LDL relative to 17β-estradiol,,at least 10 times
same,protective effect against ox-LDL inhibition of acetylcholine dilatation (in words),"ox-LDL 0.3 mg protein/ml, β-estradiol 10 pg/ml, Cpd. 5 300 ng/ml, Cpd. 7 1 μg/ml, Cpd. 8 and 12 3 μg/ml",diminished the inhibitory effect of ox-LDL; also recorded: significantly protects against endothelium damage by oxidized LDL
